The target of this test is Melanocortin receptor 5 (Homo sapiens, UniProt P33032). Description: Displacement of [125I]-NDP-alpha-MSH from human MC5R LBD expressed in HEK293 cell membranes incubated for 16 to 23 hrs in dark by scintillation proximity assay.
Melanocortin receptor 5, sequence (P33032 whole entry, the tested form may be a part): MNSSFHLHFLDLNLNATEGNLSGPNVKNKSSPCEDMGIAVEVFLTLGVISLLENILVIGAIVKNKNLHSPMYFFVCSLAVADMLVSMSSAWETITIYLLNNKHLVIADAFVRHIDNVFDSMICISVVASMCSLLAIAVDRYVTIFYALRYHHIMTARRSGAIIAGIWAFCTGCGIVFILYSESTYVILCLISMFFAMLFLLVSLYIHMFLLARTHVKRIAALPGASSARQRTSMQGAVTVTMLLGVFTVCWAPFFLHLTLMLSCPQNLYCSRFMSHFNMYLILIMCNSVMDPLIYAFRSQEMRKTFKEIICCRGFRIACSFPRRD

Compound `CC[C@H](C)[C@@H]1NC(=O)[C@@H]2CCCN2C(=O)[C@@H]2CCCN2C(=O)[C@H]([C@@H](C)CC)NC(=O)[C@H](CO)NC(=O)[C@H](C)NC(=O)[C@H]([C@@H](C)O)NC(=O)[C@@H]2CSSC[C@H](NC1=O)C(=O)N[C@@H](Cc1c[nH]cn1)C(=O)N[C@H](Cc1ccccc1)C(=O)N(C)[C@@H](CCCNC(=N)N)C(=O)N(C)[C@@H](Cc1c[nH]c3ccccc13)C(=O)N[C@@H](CCCNC(=N)N)C(=O)N2` gave an IC50 of 813 nM.

The values above are taken from BindingDB's records for doi:10.1021/acs.jmedchem.8b00170 (The University of Queensland, 2018).
